# From patent publication US20200261470A1, “COMBINATION TREATMENT WITH ANTIBODY-DRUG CONJUGATES AND PARP INHIBITORS” (IMMUNOGEN, INC., priority 2016, published 2020)
# Columns and labels:
# HEL-luc cells = assay: Proliferation measured with WST-8 reagent, HEL-luc cells; type: cell-based, human; settings: for IC50: Homo sapiens, HELluc cell line, single agent, read-out: IC50 values for PARP inhibitors in AML cell lines
# Method: (§1) Proliferation was measured following incubation with WST-8 reagent. Synergistic/additive effects were calculated using Compusyn software at varying drug concentrations. Flow cytometry for apoptosis, viability, DNA damage/repair, and cell cycle effects following combination versus single drug treatment were also performed.
# HL60 cells = assay: Proliferation measured with WST-8 reagent, HL60 cells; type: cell-based; settings: Homo sapiens, HL-60; HL60 cell line, single agent; read-out: IC50 values for PARP inhibitors in AML cell lines
# Method: as §1
# HEL cells = assay: Cell death after DNA-damaging radiation exposure in the presence of olaparib; type: cell-based, human; settings: graded concentrations of olaparib; 0.5 Gy and 0.75 Gy radiation
# [1] = test system: human CD33+ AML (HEL-luciferase) xenografts; type: in vivo; settings: IMGN779 15 mcg/kg, olaparib 100 mg/kg, alone or combined
# Method: In these experiments, stably transfected luciferase-positive human AML cells (HEL) characterized by high hCD33 expression levels were injected via tail vein into sublethally irradiated 6-8 week old SCID mice. […] In vivo systemic leukemia disease burden was evaluated weekly by small animal bioluminescent imaging. Toxicity was determined by clinical examination and weight measurements throughout the experiment. Overall study endpoints were (a) time to overall morbidity/mortality and/or (b) change in leukemia disease burden as compared with vehicle-treated mice or mice treated with single agent therapy. […] Simple stastical analyses will be performed utilizing the Stat Prism statistical software.
# [2] = test system: Human CD33+ AML cell lines (HEL, MV4-11, and HL60); assay: Proliferation by WST-8 reagent with Compusyn synergy analysis, CD33+ AML cell lines; settings: single agent, all CD33+ human AML cell lines tested
# Method: Proliferation was measured by WST-8 reagent. Synergistic/additive effects were calculated using Compusyn software. Flow cytometry was performed to assess apoptosis, cell viability, and cell cycle effects.
IC50 (HL60 cells) [µM],Structure (SMILES),IC50 (HEL-luc cells) [µM],cell death after DNA-damaging radiation exposure (HEL cells),median overall survival from inoculation [1] [days],growth inhibition in vitro [2],relative potency among PARP inhibitors (HEL-luc cells; HEL-luc and HL60 cell lines),"surviving fraction of cells (HEL-luc cells; PARP inhibitor 0.8 μM, IMGN779 800 pM, compared with olaparib and niraparib)"
2.5,"NC(=O)c1cccc2cn(-c3ccc([C@@H]4CCCNC4)cc3)nc12 [Niraparib, niraparib]",7.3,–,–,–,–,–
75,"CNCc1ccc(-c2[nH]c3cc(F)cc4c3c2CCNC4=O)cc1 [Rucaparib, rucaparib]",39,–,–,–,–,–
0.2,"Cn1ncnc1[C@H]1c2n[nH]c(=O)c3cc(F)cc(c23)N[C@@H]1c1ccc(F)cc1 [Talazoparib, talazoparib]",0.4,–,–,–,most potent PARP inhibitor,greatest decrease in surviving fraction of cells
88,"C[C@]1(c2nc3c(C(N)=O)cccc3[nH]2)CCCN1 [Vellparib, veliparib]",> 100,–,–,–,–,–

Structure (SMILES),IC50 (HL60 cells) [µM],IC50 (HEL-luc cells) [µM],cell death after DNA-damaging radiation exposure (HEL cells),median overall survival from inoculation [1] [days],growth inhibition in vitro [2],relative potency among PARP inhibitors (HEL-luc cells; HEL-luc and HL60 cell lines),"surviving fraction of cells (HEL-luc cells; PARP inhibitor 0.8 μM, IMGN779 800 pM, compared with olaparib and niraparib)"
"O=C(c1cc(Cc2n[nH]c(=O)c3ccccc23)ccc1F)N1CCN(C(=O)C2CC2)CC1 [Olaparib, olaparib]",8.9,7.4,correlation in increase cell death and apoptosis with the increase in concentration of olaparib,33.7,dose-dependent grown inhibition,–,–
